Measured values published in US11440903B2, “Salt form and crystal form of compound as FGFR4 inhibitor and preparation method thereof” (GUANGDONG ZHONGSHENG PHARMACEUTICAL CO., LTD, priority 2017, dated 2022).

Tests used:
Type in all cases: physicochemical
[1] = Solid stability test of the crystal forms (influence factors and acceleration tests; appearance, XRPD, HPLC content and impurities); settings: for photostability (stability under light radiation), conclusion in words / stability under acceleration conditions, conclusion in words / stability under high humidity conditions, conclusion in words / thermal stability (high temperature), conclusion in words: conclusion of influence factors and acceleration tests
Text: A sample of the crystal form A was placed on the bottom of a glass sample bottle, and spread to a thin layer. The sample stored under high temperature, high humidity, and acceleration conditions was placed in a bottle of which the mouth was packed with a pierced aluminum foil to ensure the sample to be sufficiently exposed to ambient air; the sample stored under light radiation conditions was placed at room temperature in a standing bottle of which the mouth was open, the sample was exposed to a light resource, and sampled for detection after being radiated by sufficient energy. Samples were taken and analyzed at various time points, and the test results were compared with the initial test results of 0 day, the inspection items included appearance, content and impurities, and the test results are shown in Table 9.
A sample of the crystal form B (10 mg) was placed on the bottom of a glass sample bottle, and spread to a thin layer. The sample stored under high temperature, high humidity, and acceleration conditions were placed in a bottle of which the mouth was packed with a pierced aluminum foil to ensure the sample to be sufficiently exposed to ambient air; the sample stored under light radiation conditions was placed at room temperature in a standing bottle of which the mouth was open, the sample was exposed to a light resource, and sampled for detection after being radiated by sufficient energy, the control sample stored in dark (open, the whole sample bottle was sealed with aluminum foil to keep the content in dark) and the sample stored under light radiation conditions were placed together to exclude environmental influence on the samples. Samples were taken and analyzed at various time points, and the test results were compared with the initial test results of 0 day, the inspection items included appearance, crystal form, content and impurities, the test results are shown in Table 10.
(§1) A sample of the crystal form C was taken and placed on the bottom of a glass sample bottle, and spread to a thin layer. The sample stored under high temperature, high humidity, and acceleration conditions was placed in a bottle of which the mouth was packed with a pierced aluminum foil to ensure the sample to be sufficiently exposed to ambient air; the sample stored under light radiation conditions was placed at room temperature in a standing bottle of which the mouth was open, the sample was exposed to a light resource, and sampled for detection after being radiated by sufficient energy. Samples were taken and analyzed at various time points, and the test results were compared with the initial test results of 0 day.
as §1, with “D” for “C”
A sample of the crystal form E (10 mg) was taken and placed on the bottom of a glass sample bottle, and spread to a thin layer. […]

[2] = Stability of the crystal form on stirring as suspension in solvent (40° C., 2 days)
Protocol: 30 mg of the compound represented by formula (I) was weighed and added into a glass flask, 400 μL acetonitrile-water (1:1) was added to form a suspension. A sample of the suspension was placed on a magnetic stirrer (40° C.) for a dark stirring experiment. The sample of the suspension was centrifuged after stirring at 40° C. for 2 days, and then the residual sample was dried in a vacuum drying oven (30° C.) overnight to give a crystal form A of the compound represented by formula (I). The XRPD pattern of the crystal form A of the compound represented by formula (I) is shown in FIG. 1, the DSC pattern is shown in FIG. 2, and the TGA pattern is shown in FIG. 3.
30 mg of the compound represented by formula (I) was weighed and added into a glass flask, and 400 μL ethyl acetate was added to form a suspension. A sample of the suspension was placed on a magnetic stirrer (40° C.) for dark stirring experiment. The sample of the suspension was centrifuged after stirring at 40° C. for 2 days, and then the residual sample was dried in a vacuum drying oven (30° C.) overnight. The crystal form was detected by XRPD to give a crystal form A of the compound represented by formula (I).
30 mg of the compound represented by formula (I) was weighed and added into a glass flask, and 400 μL methanol was added to form a suspension. A sample of the suspension was placed on a magnetic stirrer (40° C.) for dark stirring experiment. The sample of the suspension was centrifuged after stirring at 40° C. for 2 days, and then the residual sample was dried in a vacuum drying oven (30° C.) overnight to give a crystal form B of the compound represented by formula (I). The XRPD pattern of the crystal form B of the compound represented by formula (I) is shown in FIG. 4, the DSC pattern is shown in FIG. 5, and the TGA pattern is shown in FIG. 6.
50 mg of the compound represented by formula (I) was weighed and added into a 1.5 mL liquid vial, and 200 μL methanol was added thereto, the obtained mixture was homogeneously mixed under ultrasound. The dissolved sample was quickly centrifuged, and the supernatant was placed in a centrifuge tube, the mouth of the tube was packed with a pierced aluminum foil, and then the tube was placed in a fume cupboard for volatilization; the sample of the suspension was placed on a magnetic stirring heater (40° C.) for stirring (in dark), and quickly centrifuged after 2 days. The resultant solid was collected and dried at 30° C. in a vacuum drying oven overnight to give the crystal form C of the compound represented by formula (I). The XRPD pattern of the crystal form C of the compound represented by formula (I) is shown in FIG. 7, the DSC pattern is shown in FIG. 8, and the TGA pattern is shown in FIG. 9.
50 mg of the compound represented by formula (I) was weighed and added into a 1.5 mL liquid vial, and 200 μL ethanol was added thereto, and the obtained mixture was homogeneously mixed under ultrasound. The dissolved sample was quickly centrifuged, the supernatant was placed into a centrifuge tube, and the mouth of the tube was packed with a pierced aluminum foil, and placed in a fume cupboard for volatilization; the sample of the suspension was placed on a magnetic stirring heater (40° C.) for stirring (in dark), and quickly centrifuged after 2 days. The solid obtained as above was collected and dried at 30° C. in a vacuum drying oven overnight to give a crystal form D of the compound represented by formula (I). The XRPD pattern of the crystal form D of the compound represented by formula (I) is shown in FIG. 10, the DSC pattern is shown in FIG. 11, and the TGA pattern is shown in FIG. 12.
35 mg of the compound represented by formula (II) was weighed and added into a 1.5 mL liquid vial, and 400 μL methanol was added thereto, and the obtained mixture was homogeneously mixed under ultrasound. […]

[3] = Solubility test in biological media (FaSSIF, FeSSIF, SGF) and water, 37° C.; settings: SGF and fasting or satiety state simulated intestinal fluid
Protocol: Step 1: Preparation of Control Solutions (0.2 mg/mL, calculated by free base)
2 mg the crystal form B of the compound represented by formula (I) (or 2.4 mg the crystal form E of the compound represented by formula (II)) as a control was precisely weighed and placed into a 40 mL glass vial, and a diluent (10 mL) was precisely added. The reaction solution was subjected to ultrasonic treatment for 20 min to sufficiently dissolve, then cooled to room temperature and shaked well. Two control solutions (STD #1, STD #2) were formulated in accordance with this method.
Step 2: Preparation of Linear Solutions
The control solution STD #1 of the crystal form B of the compound represented by formula (I) was 1×, 10×, 100×, 1000× and 2000× (free base LOQ) diluted, and designated as the linear solutions L1, L2, L3, L4 and L5; the control solution STD #1 of the crystal form E of the compound represented by formula (II) was 1×, 10×, 100× and 1000× (methanesulfonate LOQ) diluted, and designated as the linear solutions L1, L2, L3, L4.
Step 3: Solubility Test of the crystal form B of the compound represented by formula (I), the crystal form G of the compound represented by formula (III) and the crystal form E of the compound represented by formula (II) in biological media and water
4 samples (about 4 mg) of each of the crystal form B of the compound represented by formula (I), the crystal form E of the compound represented by formula (II), and the crystal form G of the compound represented by formula (III) were added into 12 glass vials (4 mL), respectively, and then 2 mL different biological media (FaSSIF, FeSSIF, SGF) and water were added into each compound respectively, then mixed homogeneously to form a suspension. The suspension was detected for its initial pH value. A magnet was added into the suspension, and placed on a magnetic stirring heater for stirring (at a temperature of 37° C., in dark). After stirring for 24 h, a sample was taken. The taken sample was quickly centrifuged, and the residual solid was detected by XRPD. The supernatant was detected for its pH value and diluted with a diluent into appropriate multiple, then measured with HPLC for its concentration.
FaSSIF: 1. 0.042 g sodium hydroxide, 0.3438 g sodium dihydrogen phosphate and 0.6186 g sodium chloride were weighed, added into 90 mL purified water, and homogeneously mixed, then, the mixture was adjusted with 1 N hydrochloric acid or 1 N sodium hydroxide to pH=6.5, and diluted into a constant volume of 100 mL with purified water; 2. 50 mL of the buffer described above was taken, and 0.224 g commercially available powder (Biorelevant.com) of FaSSIF/FeSSIF/FaSSGF was added thereto, the mixture was stirred to dissolve, and diluted with purified water to a constant volume of 100 mL.
FeSSIF: 1. 0.404 g sodium hydroxide, 0.865 g glacial acetic acid, and 1.1874 g sodium chloride were weighed, added into 90 mL purified water, and homogeneously mixed, then, the mixture was adjusted with 1 N hydrochloric acid or 1 N sodium hydroxide to pH=5.0, and diluted with purified water to a constant volume of 100 mL, 2. 50 mL of the buffer described above was taken, and 1.12 g commercially available powder (Biorelevant.com) of FaSSIF/FeSSIF/FaSSGF was added thereto, the mixture was stirred to dissolve, and diluted with purified water to a constant volume of 100 mL.
FaSSGF (SGF): 1. 0.2 g sodium chloride was weighed, added into 90 mL purified water, and mixed homogeneously, the mixture was adjusted with 1 N hydrochloric acid to pH=1.8, and diluted with purified water to a constant volume of 100 mL, and stood at room temperature.

[4] = Acceleration test (40° C./relative humidity of 75%, open), 5 days
[5] = Acceleration test (40° C./relative humidity of 75%, open), 10 days
[6] = High humidity (room temperature/relative humidity of 92.5%, open), 5 days
[7] = High humidity (room temperature/relative humidity of 92.5%, open), 10 days
[8] = High temperature (60° C., open), 5 days
[9] = High temperature (60° C., open), 10 days
[10] = Light radiation (total illumination: 1.2 × 10^6 Lux·hr), 5 days
[11] = Light radiation (total illumination: 1.2 × 10^6 Lux·hr), 10 days

Appearance ([1]; 0 day (initial))	Content (%) ([1]; 0 day (initial))	Total Impurities (%) ([1]; 0 day (initial))	Appearance [1, 4]	Appearance [1, 5]	Content (%) [1, 5]	Total Impurities (%) [1, 5]	Appearance [1, 6]	Appearance [1, 7]	Content (%) [1, 7]	Total Impurities (%) [1, 7]	Appearance [1, 8]	Appearance [1, 9]	Content (%) [1, 9]	Total Impurities (%) [1, 9]	Appearance [1, 10]	Appearance [1, 11]	Content (%) [1, 11]	Total Impurities (%) [1, 11]	photostability (stability under light radiation), conclusion in words [1]	Compound	also measured
White	99.26%	0.72%	White	White	99.22%	0.71%	White	White	99.24%	0.73%	White	White	99.22%	0.79%	White	White	99.30%	0.73%	good	C=CC(=O)N[C@H]1COC[C@H]1Nc1ncc(/C=C(\F)c2c(Cl)c(OC)cc(OC)c2Cl)cn1.CS(=O)(=O)O [Crystal Form F]	Crystal Form (XRPD) ([1]; 0 day (initial)): form F; Crystal Form (XRPD) [1, 5]: form F; Crystal Form (XRPD) [1, 7]: form F; Crystal Form (XRPD) [1, 9]: form F; Crystal Form (XRPD) [1, 11]: form F; stability under acceleration conditions, conclusion in words [1]: good; stability under high humidity conditions, conclusion in words [1]: good; thermal stability (high temperature), conclusion in words [1]: slight impurity generation; stability in the ethanol-water solution ([2]; stirring in ethanol-water (1:1) at 40° C. for 2 days): substantially high stability
–	–	–	–	–	–	–	–	–	–	–	–	–	–	–	–	–	–	–	–	C=CC(=O)N[C@H]1COC[C@H]1Nc1ncc(/C=C(\F)c2c(Cl)c(OC)cc(OC)c2Cl)cn1.CS(=O)(=O)O [compound represented by formula (II)]	solubility in simulated gastric fluid (SGF) and simulated intestinal fluid (FaSSIF), in words [3]: relatively good solubility
Off-white	99.11%	1.12%	Off-white	Off-white	98.98%	1.18%	Off-white	Off-white	98.85%	1.22%	Off-white	Off-white	99.06%	1.18%	Off-white	Off-white	99.13%	1.10%	relatively good	C=CC(=O)N[C@H]1COC[C@H]1Nc1ncc(/C=C(\F)c2c(Cl)c(OC)cc(OC)c2Cl)cn1 [Crystal Form A]	stability under acceleration conditions, conclusion in words [1]: relatively good; stability under high humidity conditions, conclusion in words [1]: slightly less stability; thermal stability (high temperature), conclusion in words [1]: relatively good; stability in the acetonitrile-water solution ([2]; stirring in acetonitrile-water (1:1) at 40° C. for 2 days): substantially high stability; stability in the ethyl acetate solution ([2]; stirring in ethyl acetate at 40° C. for 2 days): substantially high stability
–	–	–	–	–	–	–	–	–	–	–	–	–	–	–	–	–	–	–	–	C=CC(=O)N[C@H]1COC[C@H]1Nc1ncc(/C=C(\F)c2c(Cl)c(OC)cc(OC)c2Cl)cn1.O=S(=O)(O)O [compound represented by formula (III)]	solubility in simulated gastric fluid (SGF) and simulated intestinal fluid (FaSSIF), in words [3]: relatively good solubility
